Reference: PMC5529566, “The cryo-EM structure of gastric H^+,K^+-ATPase with bound BYK99, a high-affinity member of K^+-competitive, imidazo[1,2-a]pyridine inhibitors” (Scientific Reports, 2017)
Where “and” joins values, the source holds several entries; their conditions need not be identical. Identical values can stand only once.

What was measured:
H^+,K^+-ATPase L809F [1] = settings: cited from earlier work
[2] = molecular target: H^+,K^+-ATPase A335C/C813A; parameters: method as in PMID 12379118; settings: cited from earlier work
[3] = pKa and protonation of imidazo[1,2-a]pyridine; type: physicochemical; settings: at pH 7.0 of the ATPase assays
H^+,K^+-ATPase Y799A [4] = tested on: H^+,K^+-ATPase Y799A; parameters: method as in PMID 14699149; settings: Y799A vs wild-type; cited from earlier work
H^+,K^+-ATPase Y799F [5] = tested on: H^+,K^+-ATPase Y799F; parameters: method as in PMID 14699149; settings: cited from earlier work
[6] = molecular target: H^+,K^+-ATPase A335C/C813A (Sus scrofa, UniProt P19156, A336C/C814A); test: ATPase assay, A335C/C813A mutant
H^+,K^+-ATPase Y140F = H^+,K^+-ATPase Y140F (Sus scrofa, UniProt P19156, Y141F); test: ATPase assay, Y140F mutant
H^+,K^+-ATPase D136I = H^+,K^+-ATPase D136I (Sus scrofa, UniProt P19156, D137I); test: ATPase assay, D136I mutant
H^+,K^+-ATPase N138F = H^+,K^+-ATPase N138F (Sus scrofa, UniProt P19156, N139F); test: ATPase assay, N138F mutant
Sequence of H^+,K^+-ATPase N138F (P19156 whole entry N139F): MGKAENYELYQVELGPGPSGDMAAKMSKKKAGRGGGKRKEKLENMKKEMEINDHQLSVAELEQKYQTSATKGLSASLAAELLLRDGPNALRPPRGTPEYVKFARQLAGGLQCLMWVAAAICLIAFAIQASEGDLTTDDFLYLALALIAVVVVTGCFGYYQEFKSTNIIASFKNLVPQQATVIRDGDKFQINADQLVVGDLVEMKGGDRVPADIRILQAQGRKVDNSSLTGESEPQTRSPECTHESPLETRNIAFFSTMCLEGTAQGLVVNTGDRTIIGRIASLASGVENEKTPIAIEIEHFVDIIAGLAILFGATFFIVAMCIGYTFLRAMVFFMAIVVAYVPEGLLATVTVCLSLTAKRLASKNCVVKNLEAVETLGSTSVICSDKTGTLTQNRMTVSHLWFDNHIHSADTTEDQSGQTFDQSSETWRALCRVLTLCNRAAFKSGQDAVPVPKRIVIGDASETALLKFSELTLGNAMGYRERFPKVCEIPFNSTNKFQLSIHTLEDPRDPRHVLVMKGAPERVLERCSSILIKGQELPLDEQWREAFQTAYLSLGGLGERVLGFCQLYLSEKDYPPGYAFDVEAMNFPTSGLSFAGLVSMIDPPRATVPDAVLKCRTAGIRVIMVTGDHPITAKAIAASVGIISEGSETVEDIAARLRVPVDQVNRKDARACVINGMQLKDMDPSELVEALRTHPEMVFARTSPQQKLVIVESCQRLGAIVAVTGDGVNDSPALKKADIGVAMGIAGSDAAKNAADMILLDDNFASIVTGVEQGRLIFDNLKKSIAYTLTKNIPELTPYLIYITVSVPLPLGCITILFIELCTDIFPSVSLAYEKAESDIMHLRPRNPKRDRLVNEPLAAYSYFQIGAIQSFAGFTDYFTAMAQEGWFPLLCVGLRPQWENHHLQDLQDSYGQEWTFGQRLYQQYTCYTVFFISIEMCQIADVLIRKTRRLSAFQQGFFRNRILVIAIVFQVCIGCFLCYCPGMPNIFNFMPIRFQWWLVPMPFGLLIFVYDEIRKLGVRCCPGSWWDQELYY
Sequence of H^+,K^+-ATPase N138F (P18434 whole entry partner): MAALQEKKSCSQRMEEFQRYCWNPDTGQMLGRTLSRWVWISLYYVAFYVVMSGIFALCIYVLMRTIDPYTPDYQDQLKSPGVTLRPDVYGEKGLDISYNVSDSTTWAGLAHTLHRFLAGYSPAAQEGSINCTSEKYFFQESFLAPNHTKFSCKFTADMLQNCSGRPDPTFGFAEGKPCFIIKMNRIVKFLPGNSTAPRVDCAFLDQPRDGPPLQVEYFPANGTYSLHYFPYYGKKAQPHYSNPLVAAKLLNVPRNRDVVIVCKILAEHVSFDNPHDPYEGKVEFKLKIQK

H^+,K^+-ATPase D136A = H^+,K^+-ATPase D136A (Sus scrofa, UniProt P19156, D137A); test: ATPase assay, D136A mutant
H^+,K^+-ATPase L141I = H^+,K^+-ATPase L141I (Sus scrofa, UniProt P19156, L142I); test: ATPase assay, L141I mutant
H^+,K^+-ATPase D137N = H^+,K^+-ATPase D137N (Sus scrofa, UniProt P19156, D138N); test: ATPase assay, D137N mutant
H^+,K^+-ATPase N138A = H^+,K^+-ATPase N138A (Sus scrofa, UniProt P19156, N139A); test: ATPase assay, N138A mutant
H^+,K^+-ATPase D137L = H^+,K^+-ATPase D137L (Sus scrofa, UniProt P19156, D138L); test: ATPase assay, D137L mutant
H^+,K^+-ATPase N138L = H^+,K^+-ATPase N138L (Sus scrofa, UniProt P19156, N139L); test: ATPase assay, N138L mutant
H^+,K^+-ATPase Y799A [7] = molecular target: H^+,K^+-ATPase Y799A (Sus scrofa, UniProt P19156, Y800A); test: ATPase assay, Y799A mutant
H^+,K^+-ATPase L139I = H^+,K^+-ATPase L139I (Sus scrofa, UniProt P19156, L140I); test: ATPase assay, L139I mutant
H^+,K^+-ATPase Y140A = H^+,K^+-ATPase Y140A (Sus scrofa, UniProt P19156, Y141A); test: ATPase assay, Y140A mutant
H^+,K^+-ATPase D137A = H^+,K^+-ATPase D137A (Sus scrofa, UniProt P19156, D138A); test: ATPase assay, D137A mutant
H^+,K^+-ATPase N138D = H^+,K^+-ATPase N138D (Sus scrofa, UniProt P19156, N139D); test: ATPase assay, N138D mutant
H^+,K^+-ATPase D136F = H^+,K^+-ATPase D136F (Sus scrofa, UniProt P19156, D137F); test: ATPase assay, D136F mutant
H^+,K^+-ATPase D136L = H^+,K^+-ATPase D136L (Sus scrofa, UniProt P19156, D137L); test: ATPase assay, D136L mutant
H^+,K^+-ATPase A335G = H^+,K^+-ATPase A335G (Sus scrofa, UniProt P19156, A336G); test: ATPase assay, A335G mutant
H^+,K^+-ATPase Y799F [8] = molecular target: H^+,K^+-ATPase Y799F (Sus scrofa, UniProt P19156, Y800F); test: ATPase assay, Y799F mutant
H^+,K^+-ATPase L139F = H^+,K^+-ATPase L139F (Sus scrofa, UniProt P19156, L140F); test: ATPase assay, L139F mutant
H^+,K^+-ATPase L809F [9] = molecular target: H^+,K^+-ATPase L809F (Sus scrofa, UniProt P19156, L810F); test: ATPase assay, L809F mutant
H^+,K^+-ATPase D137I = H^+,K^+-ATPase D137I (Sus scrofa, UniProt P19156, D138I); test: ATPase assay, D137I mutant
H^+,K^+-ATPase = H^+,K^+-ATPase (Sus scrofa, UniProt P19156); test: Dose-dependent inhibition of H^+,K^+-ATPase activity in the presence of 10 mM KCl
Protocol: Reactions were initiated by incubating at 37 °C using a thermal cycler, and maintained for 1 to 5 h (depending on the activity). Reactions were terminated by withdrawing 40 μL from the 80 μL reactant, and mixing with 80 μL of stop solution comprising 6% ascorbic acid and 2% ammonium molybdate in 1 N HCl, followed by the addition of 120 μL of 2% sodium arsenate, 2% sodium citrate, and 2% acetic acid. The amount of released inorganic phosphate was determined colorimetrically[39] from absorbance at 850 nm by the microplate reader (TECAN).

H^+,K^+-ATPase Y140L = H^+,K^+-ATPase Y140L (Sus scrofa, UniProt P19156, Y141L); test: ATPase assay, Y140L mutant
H^+,K^+-ATPase D137F = H^+,K^+-ATPase D137F (Sus scrofa, UniProt P19156, D138F); test: ATPase assay, D137F mutant
Sequence of H^+,K^+-ATPase D137F (P19156 whole entry D138F): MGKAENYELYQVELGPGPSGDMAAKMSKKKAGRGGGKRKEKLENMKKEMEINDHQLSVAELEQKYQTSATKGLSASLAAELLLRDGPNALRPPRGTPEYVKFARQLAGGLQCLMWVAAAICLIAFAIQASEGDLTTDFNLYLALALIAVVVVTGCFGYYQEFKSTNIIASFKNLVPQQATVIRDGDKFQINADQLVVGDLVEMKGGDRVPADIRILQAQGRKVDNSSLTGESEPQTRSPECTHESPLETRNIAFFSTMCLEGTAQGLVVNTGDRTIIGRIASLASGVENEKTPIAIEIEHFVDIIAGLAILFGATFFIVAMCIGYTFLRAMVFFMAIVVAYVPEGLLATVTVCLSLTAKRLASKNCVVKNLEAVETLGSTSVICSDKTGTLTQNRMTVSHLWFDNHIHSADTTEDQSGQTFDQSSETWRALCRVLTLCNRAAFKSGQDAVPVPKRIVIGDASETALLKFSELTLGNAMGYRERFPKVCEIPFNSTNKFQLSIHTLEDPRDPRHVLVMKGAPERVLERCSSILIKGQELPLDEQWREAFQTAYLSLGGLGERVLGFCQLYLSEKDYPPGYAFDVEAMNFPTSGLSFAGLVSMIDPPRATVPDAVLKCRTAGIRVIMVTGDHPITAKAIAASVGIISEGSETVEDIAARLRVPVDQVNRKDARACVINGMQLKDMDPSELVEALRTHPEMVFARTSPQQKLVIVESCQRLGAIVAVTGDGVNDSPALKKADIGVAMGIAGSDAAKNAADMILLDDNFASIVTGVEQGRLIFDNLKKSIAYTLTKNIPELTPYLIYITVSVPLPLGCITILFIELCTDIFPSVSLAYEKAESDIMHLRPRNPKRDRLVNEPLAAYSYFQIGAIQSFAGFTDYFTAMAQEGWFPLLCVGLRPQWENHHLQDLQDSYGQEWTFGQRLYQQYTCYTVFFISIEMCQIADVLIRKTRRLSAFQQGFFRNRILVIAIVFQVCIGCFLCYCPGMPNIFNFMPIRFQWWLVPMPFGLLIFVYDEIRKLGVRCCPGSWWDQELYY
Sequence of H^+,K^+-ATPase D137F (P18434 whole entry partner): as the sequence (P18434 whole entry partner) above

H^+,K^+-ATPase N138I = H^+,K^+-ATPase N138I (Sus scrofa, UniProt P19156, N139I); test: ATPase assay, N138I mutant
H^+,K^+-ATPase WT = molecular target: T1, H^+,K^+-ATPase WT (Sus scrofa, UniProt P19156); test: K^+-competitive inhibition of H^+,K^+-ATPase activity, 96-well ATPase assay, wild-type; type: biochemical, pig; settings: WT
T1 construct: made in house; host or cells: HEK293S GnT1- cells (BacMam baculovirus transduction); permeabilised membrane fractions

[10] = molecular target: H^+,K^+-ATPase D137N/N138D (Sus scrofa, UniProt P19156, D138N/N139D); test: ATPase assay, D137N/N138D mutant; settings: D137N/N138D
H^+,K^+-ATPase D137E = molecular target: T2, H^+,K^+-ATPase D137E (Sus scrofa, UniProt P19156, D138E); test: ATPase assay, D137E mutant; type: biochemical, pig
T2 construct: made in house; host or cells: HEK293S GnT1- cells (BacMam baculovirus transduction), membrane fraction
T2 sequence (P19156 whole entry D138E): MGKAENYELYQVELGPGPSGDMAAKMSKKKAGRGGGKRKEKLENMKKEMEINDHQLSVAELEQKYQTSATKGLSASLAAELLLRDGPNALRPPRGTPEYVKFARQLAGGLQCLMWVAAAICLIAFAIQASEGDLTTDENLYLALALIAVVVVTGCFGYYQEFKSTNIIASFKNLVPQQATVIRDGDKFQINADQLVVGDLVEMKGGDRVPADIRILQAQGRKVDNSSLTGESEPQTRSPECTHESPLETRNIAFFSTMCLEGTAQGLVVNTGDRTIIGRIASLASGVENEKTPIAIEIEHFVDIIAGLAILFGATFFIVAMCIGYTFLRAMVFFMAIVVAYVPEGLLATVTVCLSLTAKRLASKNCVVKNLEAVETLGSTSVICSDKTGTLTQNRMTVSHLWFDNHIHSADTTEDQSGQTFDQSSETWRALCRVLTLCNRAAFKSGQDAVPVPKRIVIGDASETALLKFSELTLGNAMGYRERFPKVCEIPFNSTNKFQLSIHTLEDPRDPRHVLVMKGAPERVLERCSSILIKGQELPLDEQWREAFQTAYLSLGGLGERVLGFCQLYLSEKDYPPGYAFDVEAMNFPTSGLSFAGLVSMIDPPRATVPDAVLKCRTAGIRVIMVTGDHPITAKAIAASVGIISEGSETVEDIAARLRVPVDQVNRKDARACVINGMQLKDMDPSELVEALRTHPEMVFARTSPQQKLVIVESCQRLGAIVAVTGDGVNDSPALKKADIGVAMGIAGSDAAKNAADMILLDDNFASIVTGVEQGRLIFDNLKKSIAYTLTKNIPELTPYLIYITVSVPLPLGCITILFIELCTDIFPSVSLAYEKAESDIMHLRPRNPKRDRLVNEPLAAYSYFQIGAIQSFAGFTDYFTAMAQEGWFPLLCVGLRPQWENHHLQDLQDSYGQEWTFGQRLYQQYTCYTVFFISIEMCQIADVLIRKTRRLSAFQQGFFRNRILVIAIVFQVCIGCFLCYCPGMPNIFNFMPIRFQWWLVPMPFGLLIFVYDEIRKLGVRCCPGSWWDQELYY
T2 sequence (P18434 whole entry partner): as the sequence (P18434 whole entry partner) above

H^+,K^+-ATPase L139A = H^+,K^+-ATPase L139A (Sus scrofa, UniProt P19156, L140A); test: ATPase assay, L139A mutant
Sequence of H^+,K^+-ATPase L139A (P19156 whole entry L140A): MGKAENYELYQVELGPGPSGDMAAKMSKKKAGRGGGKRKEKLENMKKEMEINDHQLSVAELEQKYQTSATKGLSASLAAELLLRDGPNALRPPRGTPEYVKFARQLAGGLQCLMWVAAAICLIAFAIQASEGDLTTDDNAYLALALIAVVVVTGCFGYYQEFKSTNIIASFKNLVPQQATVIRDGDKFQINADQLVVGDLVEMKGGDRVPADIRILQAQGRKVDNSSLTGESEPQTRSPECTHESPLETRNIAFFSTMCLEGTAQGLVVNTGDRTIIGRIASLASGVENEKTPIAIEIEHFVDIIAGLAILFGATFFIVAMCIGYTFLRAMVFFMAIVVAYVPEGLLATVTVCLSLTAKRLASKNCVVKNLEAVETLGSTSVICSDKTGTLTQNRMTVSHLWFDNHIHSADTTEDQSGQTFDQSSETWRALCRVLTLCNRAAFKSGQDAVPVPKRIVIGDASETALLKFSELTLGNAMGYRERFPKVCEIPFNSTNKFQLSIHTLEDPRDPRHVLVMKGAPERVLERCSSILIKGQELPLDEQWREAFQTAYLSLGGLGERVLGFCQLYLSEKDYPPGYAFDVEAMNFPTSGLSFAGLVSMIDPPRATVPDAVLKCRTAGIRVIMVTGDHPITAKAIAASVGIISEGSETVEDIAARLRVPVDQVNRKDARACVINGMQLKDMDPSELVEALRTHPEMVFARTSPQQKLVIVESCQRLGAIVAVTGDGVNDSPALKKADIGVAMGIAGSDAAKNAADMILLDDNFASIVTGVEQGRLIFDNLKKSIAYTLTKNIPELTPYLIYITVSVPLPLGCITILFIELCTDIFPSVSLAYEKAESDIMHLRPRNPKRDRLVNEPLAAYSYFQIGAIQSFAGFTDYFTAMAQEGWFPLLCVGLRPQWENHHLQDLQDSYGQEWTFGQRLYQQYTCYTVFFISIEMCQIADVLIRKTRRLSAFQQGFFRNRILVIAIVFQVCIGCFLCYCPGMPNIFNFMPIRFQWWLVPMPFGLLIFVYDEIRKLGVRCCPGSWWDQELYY
Sequence of H^+,K^+-ATPase L139A (P18434 whole entry partner): as the sequence (P18434 whole entry partner) above

H^+,K^+-ATPase Y140I = H^+,K^+-ATPase Y140I (Sus scrofa, UniProt P19156, Y141I); test: ATPase assay, Y140I mutant

SMILES: Cc1nc2c(OCc3ccccc3)cccn2c1CC#N [SCH28080]
- fold reduced affinity (H^+,K^+-ATPase L809F [1]; L809F vs wild-type, previously reported): more than 90 fold
- Ki (H^+,K^+-ATPase L809F [1]; L809F): 6.15 µM
- Ki [2]: > 40 µM
- affinity (in words) [2]: almost no affinity
- protonation [3]: approximately 2.5%
- fold low apparent affinity (IC 50) (H^+,K^+-ATPase Y799A [4]): ~ 100 fold and 100 fold
- effect on affinity (in words) (H^+,K^+-ATPase Y799F [5]): negligible effects

SMILES: Cc1cn2cccc(OCc3ccccc3)c2n1 [SCH-CN^−]
- Ki [6]: 71 ± 10 µM
- -fold increase in K i compared with wild-type ([6]; A335C/C813A): 22 fold
- Ki (H^+,K^+-ATPase Y140F): 3.7 ± 0.2 µM
- -fold increase in K i compared with wild-type (H^+,K^+-ATPase Y140F; Y140F): 1.2 fold
- Ki (H^+,K^+-ATPase D136I): 4.1 ± 0.3 µM
- -fold increase in K i compared with wild-type (H^+,K^+-ATPase D136I; D136I): 1.3 fold
- Ki (H^+,K^+-ATPase N138F): 52 ± 9 µM
- -fold increase in K i compared with wild-type (H^+,K^+-ATPase N138F; N138F): 16 fold
- Ki (H^+,K^+-ATPase D136A): 5.1 ± 0.4 µM
- -fold increase in K i compared with wild-type (H^+,K^+-ATPase D136A; D136A): 1.6 fold
- Ki (H^+,K^+-ATPase L141I): 2.4 ± 0.2 µM
- -fold increase in K i compared with wild-type (H^+,K^+-ATPase L141I; L141I): 0.8 fold
- Ki (H^+,K^+-ATPase D137N): 120 ± 30 µM
- -fold increase in K i compared with wild-type (H^+,K^+-ATPase D137N; D137N): 38 fold
- Ki (H^+,K^+-ATPase N138A): 4.2 ± 0.5 µM
- -fold increase in K i compared with wild-type (H^+,K^+-ATPase N138A; N138A): 1.3 fold
- Ki (H^+,K^+-ATPase D137L): 32 ± 6 µM
- -fold increase in K i compared with wild-type (H^+,K^+-ATPase D137L; D137L): 10 fold
- Ki (H^+,K^+-ATPase N138L): 14 ± 2 µM
- -fold increase in K i compared with wild-type (H^+,K^+-ATPase N138L; N138L): 4.4 fold
- Ki (H^+,K^+-ATPase Y799A [7]): 81 ± 15 µM
- -fold increase in K i compared with wild-type (H^+,K^+-ATPase Y799A [7]; Y799A): 25 fold
- Ki (H^+,K^+-ATPase L139I): 1.1 ± 0.1 µM
- -fold increase in K i compared with wild-type (H^+,K^+-ATPase L139I; L139I): 0.3 fold
- Ki (H^+,K^+-ATPase Y140A): 7.3 ± 1 µM
- -fold increase in K i compared with wild-type (H^+,K^+-ATPase Y140A; Y140A): 2.3 fold
- Ki (H^+,K^+-ATPase D137A): 28 ± 2 µM
- -fold increase in K i compared with wild-type (H^+,K^+-ATPase D137A; D137A): 8.8 fold
- Ki (H^+,K^+-ATPase N138D): 2.6 ± 0.2 µM
- -fold increase in K i compared with wild-type (H^+,K^+-ATPase N138D; N138D): 0.8 fold
- Ki (H^+,K^+-ATPase D136F): 2.9 ± 0.1 µM
- -fold increase in K i compared with wild-type (H^+,K^+-ATPase D136F; D136F): 0.9 fold
- Ki (H^+,K^+-ATPase D136L): 3.3 ± 0.2 µM
- -fold increase in K i compared with wild-type (H^+,K^+-ATPase D136L; D136L): 1.0 fold
- Ki (H^+,K^+-ATPase A335G): 1 ± 0.1 µM
- -fold increase in K i compared with wild-type (H^+,K^+-ATPase A335G; A335G): 0.3 fold
- Ki (H^+,K^+-ATPase Y799F [8]): 18 ± 2 µM
- -fold increase in K i compared with wild-type (H^+,K^+-ATPase Y799F [8]; Y799F): 5.6 fold
- Ki (H^+,K^+-ATPase L139F): 6.6 ± 0.5 µM
- -fold increase in K i compared with wild-type (H^+,K^+-ATPase L139F; L139F): 2.1 fold
- Ki (H^+,K^+-ATPase L809F [9]): 98 ± 12 µM
- -fold increase in K i compared with wild-type (H^+,K^+-ATPase L809F [9]; L809F): 31 fold
- Ki (H^+,K^+-ATPase D137I): 39 ± 7 µM
- -fold increase in K i compared with wild-type (H^+,K^+-ATPase D137I; D137I): 12 fold
- IC50 (H^+,K^+-ATPase): 110 µM
- Ki (H^+,K^+-ATPase Y140L): 2.7 ± 0.2 µM
- -fold increase in K i compared with wild-type (H^+,K^+-ATPase Y140L; Y140L): 0.8 fold
- Ki (H^+,K^+-ATPase D137F): 47 ± 6 µM
- -fold increase in K i compared with wild-type (H^+,K^+-ATPase D137F; D137F): 15 fold
- Ki (H^+,K^+-ATPase N138I): 3.7 ± 0.7 µM
- -fold increase in K i compared with wild-type (H^+,K^+-ATPase N138I; N138I): 1.2 fold
- -fold increase in K i compared with wild-type (H^+,K^+-ATPase WT): 1.0 fold
- Ki (H^+,K^+-ATPase WT; global fitting, mean ± SEM): 3.2 ± 0.3 µM
- -fold increase in K i compared with wild-type [10]: 7.2 fold
- Ki ([10]; global fitting): 23 ± 20 µM
- -fold increase in K i compared with wild-type (H^+,K^+-ATPase D137E): 1.4 fold
- Ki (H^+,K^+-ATPase D137E; high H^+-ATPase activity, K i' determined by K m/V max plot): 4.4 ± 0.4 µM
- Ki (H^+,K^+-ATPase L139A): 3.3 ± 0.3 µM
- -fold increase in K i compared with wild-type (H^+,K^+-ATPase L139A; L139A): 1.0 fold
- Ki (H^+,K^+-ATPase Y140I): 2.1 ± 0.2 µM
- -fold increase in K i compared with wild-type (H^+,K^+-ATPase Y140I; Y140I): 0.7 fold
